{
  "source": "patent US6958360B2",
  "about": "“Attractant pheromone for the Colorado potato beetle” (The United States of America as represented by the …, priority 2001, dated 2005)",
  "key": {"[1]": {"tested_on": "CPB adult antenna", "assay": "Coupled GC/electroantennogram detection (GC/EAD, EAG)", "design": "species or system Leptinotarsa decemlineata", "settings": "for EAD response to compound in volatile collections (in words): volatiles from potato plants / CPB feeding on plant", "method": "Vertical bars represent standard errors (N=6, 3 males and 3 females).\nGC/EAD analysis of volatile collections: One microlitre samples of volatile collections were injected into a Hewlett Packard™ Model 5890A gas chromatograph (GC) equipped with an HP-5 capillary column (crosslinked 5% PH ME Siloxane; film thickness 0.25 μm; length 30 m; i.d. 0.25 mm) and flame ionization detector (FID). The effluent from the column was split using a Gerstel™ GraphPack-3D/2 splitter with a ratio of ˜1 to the GC (FID): 4 to an electroantennogram preparation of a CPB adult (EAD). The EAD preparation was an adult CPB antenna removed and mounted between two glass capillary electrodes filled with 0.1M NaCl. Ag—AgCl wires in the glass capillaries. An effluent conditioning assembly to carry GC effluent over a CPB antennal preparation, hardware, and software for data collection and analyses using a computer were obtained from SYNTECH (Hilversum, the Netherlands). After an initial temperature of 50° C. held for 2 minutes following injection, the GC oven increased at 15° C./min to 235° C. which was held for 8 minutes.\n(§1) Sensitivity of antennal olfactory receptors for the racemate and optical isomers of the male specific compound were tested using coupled GC/EAD and single sensillum recording techniques. GC/EAD tests involved injection of 1 μl of serial dilutions of 3,7-dimethyl-2-oxo-oct-6-ene-1,3-diol (CPB I)."}, "[2]": {"tested_on": "Colorado potato beetle (CPB)", "assay": "Open Y-track olfactometer behavioral bioassay, optical isomers vs solvent control", "format": "in vivo, Leptinotarsa decemlineata", "settings": "serial source loads 0.0001 to 1.0 μg vs solvent control, male and female", "method": "Chemical blends and plant foliage were tested for behavioral activity in an open Y-track olfactometer modified after Visser and Piron (Visser, J. H., and P. G. M. Piron, Proceedings of the Section Experimental and Applied Entomology of the Netherlands Entomological Society Amsterdam, 9: 41-46 (1998)) and described in detail by Dickens (Dickens, J. C., Agric. Forest Entomol., 1: 47-54 (1999)). In brief, odorous stimuli emanating from volatile collections from CPB males feeding on potato plants or the male-specific compound on filter paper discs (2.5 cm dia.; Whatman™ #1 filter paper) in Ehrlenmeyer flasks were delivered to either side of the device. Hydrocarbon free air that was humidified by passing through distilled water carried the odor molecules to either arm of the bioassay apparatus. Treatments were replenished after 30 min of use in the bioassay apparatus. Airflow was regulated to 1 l/min by flowmeters. Experiments were conducted in a darkened room at 22° C. in which the only source of light was that associated with the bioassay device. For all bioassays, at least 20 males and 20 females were tested.\nVolatile collections from male CPB feeding for three hours on a potato plant and serial dilutions of the male specific compound were tested as 10 μl aliquots placed on a filter paper disc as described above. The male specific compound was tested at 1.0 μg/10 μl solvent (hexane) and in a dilution series ranging from 0.0001 to 1.0 μg/10 μl solvent.\nPrior to testing at age 7-14 days, unmated insects were held individually in 5.5 oz. cups, provided with fresh potato foliage on a continuous basis, and maintained under incubator conditions of a 16:8 light:dark cycle, 80-90% R.H., and “day” and “night” temperatures of 25° C. and 23° C., respectively. On the day of testing, insects were transferred to smaller 1 oz. cups and held for 1-3 hrs with moist filter paper but no foliage, then held in darkness for an additional 1-2 hrs.\nIndividual testing in a darkened room at 22° C. began by allowing the beetle to climb onto or be placed approximately midway up the vertical rod of the “T.” In response to a positive phototaxis to light from a flashlight mounted above the “T” and negative geotaxis, the beetles generally climbed upward. Once the insect began waving its antennae, presumably in response to test odors, its forward progress continued. Orientation was scored as soon as the test insect had moved completely from the horizontal to one of the 45 extension arms of the bioassay device. Following each test, the bioassay device was cleaned with acetone to remove contamination left by the insect. For any given series of tests, approximately half were done with the treatment and associated test apparatus on one side, and half were done with them on the other side.\nLaboratory bioassays were assessed for significant differences by the hypothesis on binomial proportions based on the standard normal approximation (Brase, C. H., and C. P. Brase (1983), Understanding Statistics, Lexington, Mass.: D. C. Heath)."}, "[3]": {"tested_on": "antennal olfactory receptors (short sensillum on the penultimate antennal segment of a CPB)", "assay": "Single sensillum (single cell) recording of receptor neuron response", "design": "species or system Leptinotarsa decemlineata", "settings": "100 ng source load; solvent control 8", "method": "as §1"}, "[4]": {"tested_on": "male CPB", "assay": "Enhancement of production of male-specific compound CPB I (24 hour volatile collection)", "format": "in vivo, Leptinotarsa decemlineata", "method": "CPB I=male-specific compound; P=6-methyl-5-hepten-2-one; FID=response of flame ionization detector. Electroantennogram (EAD) response is included for A-C.\nVolatiles were collected from male CPB feeding on 4.8 g of potato foliage in the 3 L VCC. Collections were made continuously for a 24-hour period with a single VCT. Subsequently, volatiles from groups of 20 female CPB were similarly collected in the 3 L VCC continuously for 24 hours with a single VCT.\nIn an attempt to increase production of the male specific compound, males were subject to the following treatments: JHIII in acetone, extirpation of both antennae, and extirpation of both antennae+JHIII in acetone. All treatments were repeated at least three times. For the JHIII treatment, […] of a 5 μg/ml solution of JHIII was applied to the prothoracic sternum between the coxae. Antennae were removed at the third segment from the proximal end. All treatments were performed 1 hour before placing beetles into the VCC. For the treatment with both antennae removed+JHIII, three separate collections were made continuously for at least seven days following treatment. The collection chamber was cleaned, rinsed, and fresh foliage added daily."}},
  "data": [
    {"smiles": "CC(C)=CCCC(C)(O)C(=O)CO", "note": "(racemic) [racemic CPB I, 3,7-dimethyl-2-oxo-oct-6-ene-1,3-diol]", "values": [
      {"measurement": "Mean EAG (in words)", "setting": "[1]; 10 ng injection, males and females combined", "result": "intermediate response"},
      {"measurement": "orientation preference (in words)", "setting": "[2]", "result": "no significant preference"},
      {"measurement": "action potentials during 500 msec following the initial phasic increase", "setting": "[3]", "result": 18, "unit": "action potentials"}
    ]},
    {"smiles": "OCCc1ccccc1", "note": "[2-phenyl ethanol, reference compound]", "values": [
      {"measurement": "EAD response to compound in volatile collections (in words)", "setting": "[1]", "result": "an EAD response for 2-phenyl ethanol was also observed"}
    ]},
    {"smiles": "CC(C)=CCC[C@@](C)(O)C(=O)CO", "note": "[(R)-CPB I]", "values": [
      {"measurement": "orientation preference (in words)", "setting": "[2]", "result": "inactive"},
      {"measurement": "orientation preference (in words)", "setting": "[2]; listed as (R)-enantiomer", "result": "no significant preference"},
      {"measurement": "action potentials during 500 msec following the initial phasic increase", "setting": "[3]", "result": 9, "unit": "action potentials"}
    ]},
    {"smiles": "COC(=O)/C=C(\\C)CC/C=C(\\C)CC[C@H]1OC1(C)C", "note": "[JH III, juvenile hormone III]", "values": [
      {"measurement": "production of CPB I after topical treatment", "setting": "[4]; 10 μg JH III topical, 20 males, 24 hour collection, untreated mean 53 ng", "result": 396.2, "unit": "ng"},
      {"measurement": "enhancement of collections of CPB I", "setting": "[4]; JH III and antennectomy", "result": "~200", "unit": "×"},
      {"measurement": "enhancement of CPB I production relative to untreated males", "setting": "[4]; JH III topical alone", "result": "eightfold"},
      {"measurement": "production of CPB I after combined treatment", "setting": "[4]; JH III topical and antennectomy", "result": 8833, "unit": "ng"},
      {"measurement": "increase of quantities of CPB I released vs control insects", "setting": "[4]; JH III treatment and antennectomy", "result": 166, "unit": "times"}
    ]},
    {"smiles": "CCCCCCCCC=O", "note": "[nonanal, reference compound]", "values": [
      {"measurement": "EAD response to compound in volatile collections (in words)", "setting": "[1]", "result": "EAD responses were present"}
    ]}
  ]
}
